# Data as given in patent US8519163B2, “Anti-tumor activity of AECHL-1, novel triterpenoid isolated from Ailanthus excelsa in vitro and in vivo” (National Centre for Cell Science, priority 2008, dated 2013).
# Details: mouse, in vivo
# Procedure: Next, we examined the effects of AECHL-1 on the growth of primary tumor allografts and xenografts of B16F10 cells growing in C57B1/6 mice and MCF-7 cells growing in athymic nude mice respectively. […] On this basis, we chose a dose that was 10-20% of this maximum tolerated dose or 50 and 100 μg/kg/day, i.p. or the doses which induced maximum cell death in vitro.
smiles,measurement,value
C=C1C(OCC)C2(O)OCC34C(=C(C)c5c(C)cc(O)c(OCC)c5C23)OC(=O)C(OC(=O)C(C)(O)CC)C14 (stereo not shown) [AECHL-1],maximum tolerated dose,500 μg/mice
